{"source": "patent US20180338952A1", "about": "“COMPOSITIONS AND METHODS FOR TREATING AND DIAGNOSING OCULAR DISORDERS” (Translatum Medicus Inc., priority 2014, published 2018)", "key": {"[1]": {"tested_on": "circulating monocytes and resident macrophages", "experiment": "Monocyte/macrophage depletion in the NaIO3 model, FAF/DNIRA pattern", "type": "in vivo, rat", "settings": "for NaIO3-induced pattern of FAF (and DNIRA): macrophage/monocyte depletion, Day 3 and Day 7 after NaIO3", "text": "To determine the identity of the autofluorescent cells that coincide with the reticular pattern of FAF, excised retina were stained for with markers of the innate immune system, avoiding the 488 nm channel. Iba1 is a pan-microglial/macrophage marker and in the rat retina; antibodies against it identify the major phagocytic cell populations. […] Further, when compared against photoreceptor nuclear staining, this curvilinear pattern is seen to lie interposed between folds of the deformed ONL. This pattern of Iba1^+ cells corresponds with the pattern of hyperfluorescence observed in vivo by FAF imaging, and with the pattern of autofluorescent cells in excised retina. […] Importantly, at 7 days after NaIO3, all RPE cells are absent from the posterior eye cup, confirming that these cells cannot be responsible for the observed FAF. Also, identification of the autofluorescent cells as phagocytic was confirmed by comparison of imaging to preparations in which monocyte/macrophage depletion has been undertaken. Such depletion was achieved by treatment with gadolinium chloride (GAD).\nFurther, to confirm that hyperfluorescent FAF or abnormal patterns of FAF and hyperfluorescent DNIRA correlated or co-localized with the distribution of phagocytic cells, the circulating macrophage/monocyte population was depleted using gadolinium chloride (GAD or GdCl3), a rare earth metal salt which depresses macrophage activity. […] This was evident qualitatively both within the geographic areas of damage, and at its border (FIGS. 8A-C)."}, "[2]": {"tested_on": "retinal function (b-wave amplitude)", "experiment": "Electroretinography toxicity study of systemic ICG", "settings": "high (5.0 mg/kg) and low (0.35 mg/kg) systemic dose vs PBS; three weeks following injection", "protocol": "Electroretinography (ERG) was performed to evaluate potential toxicity.\nElectroretinography (ERG): animals receiving ICG or PBS were evaluated using the Espion (DiagnosysLLC, USA) mini-Ganzfeld ERG system. Following anesthesia, animals were placed on an electrically silent heating pad and gold coil electrodes placed on the corneal surface after application of GenTeal lubricating drops. Following a short train of dim flashes (0.01 candela s/m^2, 1.0 Hz), a scotopic b-wave amplitude was evaluated using a single bright flash (3 candela s/m^2) that we previously determined consistently produces a response close to the maximum b-wave amplitude. Student t-test was used to compare post-injection amplitudes against baseline (prior to injection)."}, "[3]": {"target": "complement factor D (CFD) (Homo sapiens, UniProt P00746)", "sequence (P00746 26-253)": "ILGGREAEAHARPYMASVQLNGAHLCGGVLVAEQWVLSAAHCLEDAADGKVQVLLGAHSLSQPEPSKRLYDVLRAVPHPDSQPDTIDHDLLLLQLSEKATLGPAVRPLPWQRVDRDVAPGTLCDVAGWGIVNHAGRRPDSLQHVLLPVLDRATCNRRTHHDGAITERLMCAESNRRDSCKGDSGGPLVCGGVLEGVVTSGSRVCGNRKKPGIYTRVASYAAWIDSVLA", "settings": "phase II, 18 month period, patients; cited from earlier work"}}, "note": "“Also recorded” adds a separate entry of the source.", "data": [{"compound": "[Cl][Gd]([Cl])[Cl]", "note": "[GAD, gadolinium chloride]", "values": [{"measurement": "area of damage", "setting": "[1]; 7 days after NaIO3 and simultaneous GAD depletion", "value": "smaller areas of damage"}, {"measurement": "NaIO3-induced pattern of FAF (and DNIRA)", "setting": "[1]", "value": "far less well defined reticular patterns of FAF; also recorded: profound alteration; also recorded: less well-demarcated borders"}, {"measurement": "NaIO3-induced pattern of FAF (and DNIRA)", "setting": "[1]; listed as gadolinium", "value": "alters the FAF pattern"}]}, {"compound": "CC1(C)C(/C=C/C=C/C=C/C=C2\\N(CCCCS(=O)(=O)O)c3ccc4ccccc4c3C2(C)C)=[N+](CCCCS(=O)(=O)[O-])c2ccc3ccccc3c21", "note": "[ICG, indocyanine green]", "values": [{"measurement": "change in ERG b-wave amplitude", "setting": "[2]", "value": "no statistically significant change"}]}, {"compound": "Lampilizumab: complement factor D (CFD) inhibitor; anti-factor D antibody (Genentech)", "values": [{"measurement": "growth (expansion) of geographic atrophy", "setting": "[3]", "value": "can slow the growth"}]}]}
